Conditions: 343.15 K, Liquid, Vibrating tube method

CCCCCCC(=O)OCC(COC(=O)CCCCCC)(COC(=O)CCCCCC)COC(=O)CCCCCC [pentaerythritol tetraheptanoate]
Conditions	mass density [kg/m3]
18415 kPa	953.8
18445 kPa	953.9
18482 kPa	953.8
18513 kPa	954
18540 kPa	953.8
18543 kPa	953.8
18564 kPa	954
18575 kPa	953.9
18587 kPa	953.9
18610 kPa	954
18613 kPa	954
18633 kPa	954
18645 kPa	953.9
18661 kPa	954.1
18683 kPa	953.9
18685 kPa	954.1
18708 kPa	954
18712 kPa	954
18737 kPa	953.9
18761 kPa	954.1
18790 kPa	954
18814 kPa	954
18842 kPa	954
18866 kPa	954.2
18891 kPa	954
18920 kPa	954.3
18944 kPa	954.2
18968 kPa	954.1
18992 kPa	954.2
19022 kPa	954.1
19041 kPa	954.1
19047 kPa	954.2
19065 kPa	954.3
19072 kPa	954.3
19094 kPa	954.3
19102 kPa	954.3
19119 kPa	954.4
19127 kPa	954.3
19144 kPa	954.3
19152 kPa	954.2
19168 kPa	954.4
19178 kPa	954.4
19198 kPa	954.4
19208 kPa	954.3
19224 kPa	954.4
19233 kPa	954.4
19249 kPa	954.4
19259 kPa	954.4
19275 kPa	954.4
19288 kPa	954.4
19314 kPa	954.4
19340 kPa	954.5
19360 kPa	954.5
19391 kPa	954.4
19421 kPa	954.6
19437 kPa	954.6
19446 kPa	954.5
19468 kPa	954.6
19478 kPa	954.4
19493 kPa	954.7
19503 kPa	954.7
19514 kPa	954.7
19534 kPa	954.6
19540 kPa	954.7
19561 kPa	954.5
19577 kPa	954.6
19587 kPa	954.6
19602 kPa	954.6
19618 kPa	954.6
19628 kPa	954.6
19644 kPa	954.5
19660 kPa	954.7
19670 kPa	954.7
19686 kPa	954.8
19697 kPa	954.8
19712 kPa	954.7
19729 kPa	954.7
19756 kPa	954.6
19783 kPa	954.7
19814 kPa	954.6
19842 kPa	954.8
19869 kPa	954.7
19902 kPa	954.8
19926 kPa	954.8
19958 kPa	954.9
19985 kPa	954.9
20013 kPa	954.8
20045 kPa	954.9
20073 kPa	955
20106 kPa	955
20134 kPa	954.9
20162 kPa	954.9
20189 kPa	955
20223 kPa	955
20251 kPa	955.1
20281 kPa	955
20292 kPa	955.2
20310 kPa	955.1
20321 kPa	955.1
20344 kPa	955.1
20350 kPa	955.1
20373 kPa	955.1
20384 kPa	955.1
20401 kPa	955
20412 kPa	955.1
20429 kPa	955.1
20463 kPa	955.2
20492 kPa	955.2
20504 kPa	955.2
20527 kPa	955.3
20555 kPa	955.2

From the NIST ThermoML archive (doi:10.1021/je060271a)
